Like-named read-outs stand apart in the source and are kept apart here. Marks after values point to notes of the source that are not given here.
Assay: log P by HPLC (EEC Directive 79/831 Annex V.A8)
Type: physicochemical
[1] = [b] LC-MS, acidic range, pH 2.7, 0.1% aqueous formic acid and acetonitrile
[2] = [c] LC-MS, neutral range, pH 7.8, 0.001 molar aqueous ammonium hydrogencarbonate and acetonitrile
[3] = [a] HPLC, acidic range, pH 2.3, 0.1% aqueous phosphoric acid and acetonitrile
[4] = HPLC (LC-MS), [b] LC-MS, acidic range, pH 2.7, 0.1% aqueous formic acid and acetonitrile, read-out: log P
[5] = HPLC, pH 2.7, given in the preparation examples, read-out: logP (pH2.7)

Structure (SMILES)	log P [1]	log P [2]	further results
CCOC(=O)c1cccc(C2CCN(C(=O)Cn3nc(C(F)(F)F)cc3C)CC2)n1 [Example 134]	2.74^[b]		
Cc1cc(C(F)(F)F)nn1CC(=O)N1CCC(c2cccc(C(=O)Nc3cccc4cccnc34)n2)CC1 [Example 31]	4.02	4.04	
CCCCCC(C)NC(=O)c1cccc(C2CCN(C(=O)Cn3nc(C(F)(F)F)cc3C)CC2)n1 (racemic) [Example 17]	4.17	4.13	
Cc1cc(C(F)(F)F)nn1CC(=O)N1CCC(c2cccc(C(=O)OCC#Cc3ccccc3Cl)n2)CC1 [Example 36]	4.03^[b]		
Cc1csc(COC(=O)c2cccc(C3CCN(C(=O)Cn4nc(C(F)F)cc4C(F)F)CC3)n2)c1 [Example 109]	3.6^[b]		
O=C(Cn1nc(C(F)F)cc1C(F)F)N1CCC(c2cccc(C(=O)N3CCOc4ccccc43)n2)CC1 [Example 81]	2.98	2.97	
Cc1cc(C(F)(F)F)nn1CC(=O)N1CCC(c2cccc(C(=O)OCC3CCCCC3)n2)CC1 [Example 38]	4.38^[b]		
O=C(SCc1ccc(F)cc1)c1cccc(C2CCN(C(=O)Cn3nc(C(F)F)cc3C(F)F)CC2)n1 [Example 128]		4.15	log P [3]: 4.1
O=C(NCc1ccccn1)c1cccc(C2CCN(C(=O)Cn3nc(C(F)F)cc3C(F)F)CC2)n1 [Example 90]	1.83	2.37	
Cc1cc(C(F)(F)F)nn1CC(=O)N1CCC(c2cccc(C(=O)N(C)Cc3ccc(Cl)cc3Cl)n2)CC1 [Example 13]	3.85^[b]; 3.85^[c]	3.85^[b]; 3.85^[c]	
O=C(Oc1cccc2ccccc12)c1cccc(C2CCN(C(=O)Cn3nc(C(F)F)cc3C(F)F)CC2)n1 [Example 110]	3.82^[b]		
O=C(OCc1ccccc1F)c1cccc(C2CCN(C(=O)Cn3nc(C(F)F)cc3C(F)F)CC2)n1 [Example 106]	3.45^[b]		
Cc1cc(C(F)(F)F)nn1CC(=O)N1CCC(c2cccc(C(=O)OCc3c(F)cc(F)cc3F)n2)CC1 [Example 43]	3.69^[b]		
Cc1cc(C(F)(F)F)nn1CC(=O)N1CCC(c2cccc(C(=O)Sc3ccccc3)n2)CC1 [Example 62]	3.95^[b]; 3.95^[c]	3.95^[b]; 3.95^[c]	
O=C(Sc1cccc2ccccc12)c1cccc(C2CCN(C(=O)Cn3nc(C(F)F)cc3C(F)F)CC2)n1 [Example 114]		4.42	log P [3]: 4.4
Cc1cc(C(F)(F)F)nn1CC(=O)N1CCC(c2cccc(C(=O)SCc3ccc(Cl)cc3Cl)n2)CC1 [Example 55]	5.17	5.21	
Cc1cc(C(F)(F)F)nn1CC(=O)N1CCC(c2cccc(C(=O)OCc3ccccc3Cl)n2)CC1 [Example 46]	3.84^[b]		
Cc1cc(C(F)(F)F)nn1CC(=O)N1CCC(c2cccc(C(=O)N(C)C3CCCc4ccccc43)n2)CC1 (centres unmarked) [Example 12, N-Methyl-6-(1-{[5-methyl-3-(trifluoromethyl)-1H-pyrazol-1-yl]acetyl}piperidin-4-yl)-N-(1,2,3,4-tetrahydronaphthalen-1-yl)pyridine-2-carboxamide]			chromatographic logP [4]: 3.61; chromatographic logP [5]: 3.61
CCCCCCCOC(=O)c1cccc(C2CCN(C(=O)Cn3nc(C(F)F)cc3C(F)F)CC2)n1 [Example 102]	4.59^[b]		
O=C(OC1CCCCC1)c1cccc(C2CCN(C(=O)Cn3nc(C(F)F)cc3C(F)F)CC2)n1 [Example 99, Cyclohexyl 6-(1-{[3,5-bis(difluoromethyl)-1H-pyrazol-1-yl]acetyl}piperidin-4-yl)-pyridine-2-carboxylate]			chromatographic logP [4]: 3.83; chromatographic logP [5]: 3.83

Structure (SMILES)	log P [1]	log P [2]	further results
Cc1cc(C(F)(F)F)nn1CC(=O)N1CCC(c2cccc(C(=O)Nc3cccc4ccccc34)n2)CC1 [Example 29]	3.94		
COCCOC(=O)c1cccc(C2CCN(C(=O)Cn3nc(C(F)(F)F)cc3C)CC2)n1 [Example 41]	2.46^[b]		
O=C(OC1CCCCC1F)c1cccc(C2CCN(C(=O)Cn3nc(C(F)F)cc3C(F)F)CC2)n1 (centres unmarked) [Example 115]	3.37^[b]		
Cc1cc(C(F)(F)F)nn1CC(=O)N1CCC(c2cccc(C(=O)OC3CCCCC3F)n2)CC1 (centres unmarked) [Example 116]	3.43^[b]		
C=CCCCCOC(=O)c1cccc(C2CCN(C(=O)Cn3nc(C(F)F)cc3C(F)F)CC2)n1 [Example 101]	3.8^[b]		
O=C(Oc1cccc2c1CCCC2)c1cccc(N2CCN(C(=O)Cn3nc(C(F)F)cc3C(F)F)CC2)n1 [Example 139]		4.29	log P [3]: 4.25
Cc1cc(C(F)(F)F)nn1CC(=O)N1CCC(c2cccc(C(=O)N(C)c3ccccc3Cl)n2)CC1 [Example 10]	3.18	3.2	
O=C(NCc1ccccc1Br)c1cccc(C2CCN(C(=O)Cn3nc(C(F)F)cc3C(F)F)CC2)n1 [Example 4]	3.44	3.47	
Cc1cc(C(F)(F)F)nn1CC(=O)N1CCC(c2cccc(C(=O)OCc3ccccc3F)n2)CC1 [Example 47]	3.52^[b]		
O=C(NCc1ccccc1Cl)c1cccc(N2CCN(C(=O)Cn3nc(C(F)F)cc3C(F)F)CC2)n1 [Example 146]		3.26	log P [3]: 3.24
O=C(NCc1ccc(Cl)cc1Cl)c1cccc(N2CCN(C(=O)Cn3nc(C(F)F)cc3C(F)F)CC2)n1 [Example 144]		3.7	log P [3]: 3.68
CCOC(=O)c1cccc(C2=CCN(C(=O)OC(C)(C)C)CC2)n1 [1′-tert-butyl 6-ethyl-3′,6′-dihydro-2,4′-bipyridine-1′,6(2′H)-dicarboxylate]			logP (pH2.7) (pH 2.7, given in the preparation examples): 3.48
Cc1cc(C(F)(F)F)nn1CC(=O)N1CCC(c2cccc(C(=O)Sc3cccc4ccccc34)n2)CC1 [Example 60]	4.41	4.46	
CC(C)(C)OC(=O)N1CCN(c2cccc(Br)n2)CC1 [tert-Butyl 4-(6-bromopyridin-2-yl)piperazine-1-carboxylate]			chromatographic logP [5]: 4.08
Cc1cc(C(F)(F)F)nn1CC(=O)N1CCC(c2cccc(C(=O)N(C)C3CCCCC3)n2)CC1 [Example 11]	3.15	3.18	
Cc1ccccc1CSC(=O)c1cccc(N2CCN(C(=O)Cn3nc(C(F)(F)F)cc3C)CC2)n1 [Example 145]	4.52	4.55	
Cc1cc(C(F)(F)F)nn1CC(=O)N1CCC(c2cccc(C(=O)Nc3ccc4ccccc4c3)n2)CC1 [Example 30]	4.09	4.11	
Cc1cc(C(F)(F)F)nn1CC(=O)N1CCC(c2cccc(C(=O)OCCCC(F)(F)F)n2)CC1 [Example 6]	3.37^[b]		
Cc1cc(C(F)(F)F)nn1CC(=O)N1CCC(c2cccc(C(=O)OCc3ccc(F)cc3F)n2)CC1 [Example 42]	3.6^[b]		
Cc1ccsc1CNC(=O)c1cccc(C2CCN(C(=O)Cn3nc(C(F)(F)F)cc3C)CC2)n1 [Example 27]	3.29	3.34	

Structure (SMILES)	log P [1]	log P [2]	further results
Cc1cc(C(F)(F)F)nn1CC(=O)N1CCC(c2cccc(C(=O)SC3CCCCC3)n2)CC1 [Example 53]		4.83^[c]	
Cc1cc(C(F)(F)F)nn1CC(=O)N1CCC(c2cccc(C(=O)OCC(C)(C)C)n2)CC1 [Example 37]	3.86^[b]		
CCCCCCCNC(=O)c1cccc(C2CCN(C(=O)Cn3nc(C(F)F)cc3C(F)F)CC2)n1 [Example 85]	3.96	4.05	
Cc1ccnc(COC(=O)c2cccc(C3CCN(C(=O)Cn4nc(C(F)(F)F)cc4C)CC3)n2)c1 [Example 50]	3.67^[b]		
Cc1cc(C(F)(F)F)nn1CC(=O)N1CCN(c2cccc(C(=O)NCc3c(F)cccc3F)n2)CC1 [Example 66]	3.11	3.12	
CCCCCCCOC(=O)c1cccc(C2CCN(C(=O)Cn3nc(C(F)(F)F)cc3C)CC2)n1 [Example 40]	4.73^[b]		
Cc1cc(C(F)(F)F)nn1CC(=O)N1CCN(c2cccc(C(=O)NCc3cccs3)n2)CC1 [Example 67]	2.92	2.93	
O=C(NCc1ccccc1Cl)c1cccc(C2CCN(C(=O)Cn3nc(C(F)F)cc3C(F)F)CC2)n1 [Example 88]	3.35	3.39	
O=C(OCc1ccc(F)cc1F)c1cccc(C2CCN(C(=O)Cn3nc(C(F)F)cc3C(F)F)CC2)n1 [Example 103]	3.54^[b]		
O=C(Oc1ccc2ccccc2c1)c1cccc(C2CCN(C(=O)Cn3nc(C(F)F)cc3C(F)F)CC2)n1 [Example 111]	3.86^[b]		
Cc1cc(C(F)(F)F)nn1CC(=O)N1CCN(c2cccc(C(=O)Oc3ccc4ccccc4c3)n2)CC1 [Example 76]	4.01	4.02	
COC1CCCCC1OC(=O)c1cccc(C2CCN(C(=O)Cn3nc(C(F)F)cc3C(F)F)CC2)n1 (centres unmarked) [Example 97]	4.17^[b]		
Cc1ccccc1COC(=O)c1cccc(C2CCN(C(=O)Cn3nc(C(F)(F)F)cc3C)CC2)n1 [Example 44]	3.8^[b]		
O=C(NCc1c(F)cccc1F)c1cccc(C2CCN(C(=O)Cn3nc(C(F)F)cc3C(F)F)CC2)n1 [Example 89]	3.11	3.14	
Cc1cccnc1COC(=O)c1cccc(C2CCN(C(=O)Cn3nc(C(F)F)cc3C(F)F)CC2)n1 [Example 108]	2.14^[b]		
Cc1cc(C(F)(F)F)nn1CC(=O)N1CCC(c2cccc(C(=O)OCc3ccccc3C(F)(F)F)n2)CC1 [Example 45]	3.97^[b]		
O=C(O)c1cccc(C2CCN(C(=O)Cn3nc(C(F)F)cc3C(F)F)CC2)n1 [Example 135, 6-(1-{[3,5-Bis(difluoromethyl)-1H-pyrazol-1-yl]acetyl}piperidin-4-yl)pyridine-2-carboxylic acid]			chromatographic logP [4]: 1.55; chromatographic logP [5]: 1.55
CCCCCC(C)NC(=O)c1cccc(C2CCN(C(=O)Cn3nc(C(F)F)cc3C(F)F)CC2)n1 (centres unmarked) [Example 83]	3.99	3.95	
CN(Cc1ccccn1)C(=O)c1cccc(C2CCN(C(=O)Cn3nc(C(F)F)cc3C(F)F)CC2)n1 [Example 80]	1.81	2.18	
